US20260191807A1, “COMPOSITIONS AND METHODS FOR TREATMENT OF PRADER-WILLI SYNDROME” (ERX Pharmaceuticals Inc., priority 2022, published 2026)
Several values for one entry are separate records, joined by “and”; a condition that tells them apart may be missing. Equal values may be shown once.

Experiments:
Format in all cases: in vivo
C57BL/6 DIO mice [1] = assay: Body weights of C57BL/6 DIO mice during daily treatment; conditions: Celastrol 0.2 mg/kg IP daily; for Body weights (expressed as a percentage of day-1 weight) / Body weights (in grams): Belaronib 0.3 mg/kg SC, mean
C57BL/6 DIO mice [2] = assay: Nestlet shredding test in C57BL/6 DIO mice; conditions: Belaronib 0.3 mg/kg SC, Celastrol 0.2 mg/kg IP daily, mean
Method: (§1) C57BL/6 mice were treated with test compound (Celastrol) or controls as shown in the table below from Day 1 to Day 15. […] One mouse was excluded from the study because it appeared resistant to nestlet shredding prior to treatment.
Male C57BL/6 DIO mice were obtained from Jackson Labs (Bar Harbor, ME). The mice arrived at ages 17 weeks and mice were housed 3 per cage on arrival. Prior to dosing in the study, the mice were singly housed.
(§2) All treatment volumes were 10 mL/kg. Utilizing the art-recognized nestlet shredding mouse model, […]. Celastrol and the vehicle control were administered intraperitoneally using a 30G needle. Beloranib was administered subcutaneously using a 30G needle. All treatments were administered daily in the afternoon at 17:00 h, 1 hour before dark cycle from Day 1 to end of dosing.
Celastrol was dissolved in a pharmaceutically-acceptable excipient, e.g., 50% Solutol/50% DMAC, and this stock solution aliquoted and stored at −80° C. until treatment day. On the day of treatment, an aliquot of the stock solution was thawed and diluted […] with saline to obtain the desired dosing solution strength in 5% Solutol/5% dimethylacetamide/90% saline. The vehicle control was 5% Solutol/5% dimethylacetamide/90% saline. Beloranib was dissolved in 100% DMSO, and this stock solution was aliquoted and stored at −80° C. until treatment day. On the day of treatment, an aliquot of the stock solution was thawed and diluted 1:10 with deionized (DI) water to obtain the desired dosing solution strength in 10% DMSO.
(§3) The nestlet shredding test is an art-recognized animal model for human repetitive, anxiety, and/or compulsive behaviors. In the nestlet shredding test, a nestlet comprised of pulped fiber, e.g., cotton fiber, is preweighed and placed on top of cage bedding and the amount of the nestlet remaining intact after a test session of pre-determined time is evaluated.
Nestlet shredding was determined on day 1, day 6, day 11 and day 15 by placing a fresh nestlet prior to the dark cycle and measuring the weight of the remaining nestlet at 12 and 24 hours on an Ohaus model CS 200 balance. Percent shredding was calculated based on the initial nestlet weight.

C57BL/6-Magel2 mice = assay: Nestlet shredding test in C57BL/6 Magel2 mice; conditions: 0.2 mg/kg IP QD, mean
Method: The nestlet shredding behavioral effects of celastrol was evaluated in Magel2 knockout mice. Magel2 knockout has been used as a model of Prader-Willi syndrome to assess potential pharmacological treatments effect on behavior (Meziane 2015). Without wishing to be bound by theory, the Magel2 gene is a major causative gene of phenotypes in both Prader-Willi syndrome and autism (Schraff 2013). Further, nestlet shredding has been used to assess anxiety and compulsive behaviors in mouse models (Angoa-Perez 2013 and Dorniger 2020) and has been used to characterize clinically effective treatments for Prader-Willi syndrome (Fagen 2018 and McCandless 2017).
(§4) In the study disclosed herein, celastrol at was administered intraperitoneally using a 30G needle at a dose of 0.2 mg/kg to five female Magel2 homozygous mice (−/−) and four male mice heterozygous for Magel2 (−/+). In addition, vehicle was administered to four male mice heterozygous for Magel2 (−/+) for 21 days.
C57BL/6-Magel2 mice were bred for purpose from cryo recovery by Jackson Labs (Bar Harbor, ME) and arrived at the testing facility at age 8 weeks.
as §2, with “needle.” for “needle. Beloranib was administered subcutaneously using a 30G needle.”
Celastrol was dissolved in 50% Solutol/50% DMAC. The resulting stock solution aliquoted and stored at −80° C. until treatment day. On the day of treatment an aliquot of the stock solution was thawed and diluted 1:20 with saline to obtain the desired dosing solution strength in 5%
as §3
Nestlet shredding was determined on day 1, day 11, and day 21 by placing a fresh nestlet prior to the dark cycle and measuring the weight of the remaining nestlet at 12 and 24 hours on an Ohaus model CS 200 balance. Percent shredding was calculated based on the initial nestlet weight.

C57BL/6 mice = assay: Deaths and clinical signs, C57BL/6 DIO study; conditions: C57BL/6 DIO mice treated Day 1 to Day 15; Celastrol 0.2 mg/kg IP
Method: as §1

Magel2 mice = assay: Deaths and clinical signs, Magel2 study; conditions: 0.2 mg/kg IP for 21 days
Method: as §4

CC1=C(O)C(=O)C=C2C1=CC=C1[C@@]2(C)CC[C@@]2(C)[C@@H]3C[C@](C)(C(=O)O)CC[C@]3(C)CC[C@]12C [Celastrol]
Body weights (expressed as a percentage of day-1 weight) (C57BL/6 DIO mice [1]; Day 1): 100.0% | Body weights (in grams) (C57BL/6 DIO mice [1]; Day 1): 44.8 grams and 45.4 grams | Body weights (expressed as a percentage of day-1 weight) (C57BL/6 DIO mice [1]; Day 2): 98.6% | Body weights (in grams) (C57BL/6 DIO mice [1]; Day 2): 44.8 grams | Body weights (expressed as a percentage of day-1 weight) (C57BL/6 DIO mice [1]; Day 3): 95.8% | Body weights (in grams) (C57BL/6 DIO mice [1]; Day 3): 43.5 grams | Body weights (expressed as a percentage of day-1 weight) (C57BL/6 DIO mice [1]; Day 4): 92.8% | Body weights (in grams) (C57BL/6 DIO mice [1]; Day 4): 42.2 grams | Body weights (expressed as a percentage of day-1 weight) (C57BL/6 DIO mice [1]; Day 5): 89.6% | Body weights (in grams) (C57BL/6 DIO mice [1]; Day 5): 40.7 grams | Body weights (expressed as a percentage of day-1 weight) (C57BL/6 DIO mice [1]; Day 6): 86.2% | Body weights (in grams) (C57BL/6 DIO mice [1]; Day 6): 39.2 grams | Body weights (expressed as a percentage of day-1 weight) (C57BL/6 DIO mice [1]; Day 7): 83.8% | Body weights (in grams) (C57BL/6 DIO mice [1]; Day 7): 38.1 grams | Body weights (expressed as a percentage of day-1 weight) (C57BL/6 DIO mice [1]; Day 8): 81.3% | Body weights (in grams) (C57BL/6 DIO mice [1]; Day 8): 37.0 grams | Body weights (expressed as a percentage of day-1 weight) (C57BL/6 DIO mice [1]; Day 9): 79.2% | Body weights (in grams) (C57BL/6 DIO mice [1]; Day 9): 36.0 grams | Body weights (expressed as a percentage of day-1 weight) (C57BL/6 DIO mice [1]; Day 10): 76.5% | Body weights (in grams) (C57BL/6 DIO mice [1]; Day 10): 34.8 grams | Body weights (expressed as a percentage of day-1 weight) (C57BL/6 DIO mice [1]; Day 11): 73.9% | Body weights (in grams) (C57BL/6 DIO mice [1]; Day 11): 33.6 grams | Body weights (expressed as a percentage of day-1 weight) (C57BL/6 DIO mice [1]; Day 12): 72.2% | Body weights (in grams) (C57BL/6 DIO mice [1]; Day 12): 32.8 grams | Body weights (expressed as a percentage of day-1 weight) (C57BL/6 DIO mice [1]; Day 13): 71.1% | Body weights (in grams) (C57BL/6 DIO mice [1]; Day 13): 32.3 grams | Body weights (expressed as a percentage of day-1 weight) (C57BL/6 DIO mice [1]; Day 14): 70.1% | Body weights (in grams) (C57BL/6 DIO mice [1]; Day 14): 31.9 grams | Body weights (expressed as a percentage of day-1 weight) (C57BL/6 DIO mice [1]; Day 15): 69.2% | Body weights (in grams) (C57BL/6 DIO mice [1]; Day 15): 31.4 grams | body weight lost (percentage of day 1 body weight) (C57BL/6 DIO mice [1]; at day 15, Beloranib 0.3 mg/kg SC, vehicle-treated mice lost 15.5%): 30.8% | Nestlet Shredding (percent of nestlet shredded) (C57BL/6 DIO mice [2]; Day 1, 12 hour): 94.4% | Nestlet Shredding (percent of nestlet shredded) (C57BL/6 DIO mice [2]; Day 6, 12 hour): 70.1% | Nestlet Shredding (percent of nestlet shredded) (C57BL/6 DIO mice [2]; Day 6, 24 hour): 93.6% | Nestlet Shredding (percent of nestlet shredded) (C57BL/6 DIO mice [2]; Day 11, 12 hour): 43.7% | Nestlet Shredding (percent of nestlet shredded) (C57BL/6 DIO mice [2]; Day 11, 24 hour): 71.0% | Nestlet Shredding (percent of nestlet shredded) (C57BL/6 DIO mice [2]; Day 15, 12 hour): 50.9% | Nestlet Shredding (percent of nestlet shredded) (C57BL/6 DIO mice [2]; Day 15, 24 hour): 63.3% | Nestlet Shredding (percent of nestlet shredded) (C57BL/6-Magel2 mice; Day 1, 12 hour, Magel2 (−/+) heterozygous male mice): 100.0% | Nestlet Shredding (percent of nestlet shredded) (C57BL/6-Magel2 mice; Day 1, 12 hour, Magel2 (−/−) homozygous female mice): 100.0% | Nestlet Shredding (percent of nestlet shredded) (C57BL/6-Magel2 mice; Day 11, 12 hour, Magel2 (−/+) heterozygous male mice): 100.0% | Nestlet Shredding (percent of nestlet shredded) (C57BL/6-Magel2 mice; Day 11, 12 hour, Magel2 (−/−) homozygous female mice): 54.7% | Nestlet Shredding (percent of nestlet shredded) (C57BL/6-Magel2 mice; Day 11, 24 hour, Magel2 (−/+) heterozygous male mice): 100.0% | Nestlet Shredding (percent of nestlet shredded) (C57BL/6-Magel2 mice; Day 11, 24 hour, Magel2 (−/−) homozygous female mice): 93.5% | Nestlet Shredding (percent of nestlet shredded) (C57BL/6-Magel2 mice; Day 21, 12 hour, Magel2 (−/+) heterozygous male mice): 38.3% | Nestlet Shredding (percent of nestlet shredded) (C57BL/6-Magel2 mice; Day 21, 12 hour, Magel2 (−/−) homozygous female mice): 54.7% | Nestlet Shredding (percent of nestlet shredded) (C57BL/6-Magel2 mice; Day 21, 24 hour, Magel2 (−/+) heterozygous male mice): 44.6% | Nestlet Shredding (percent of nestlet shredded) (C57BL/6-Magel2 mice; Day 21, 24 hour, Magel2 (−/−) homozygous female mice): 62.3% | deaths or abnormal clinical signs (C57BL/6 mice): No deaths or abnormal clinical signs | deaths or abnormal clinical signs (Magel2 mice): No deaths or abnormal clinical signs
